Reference: PubChem BioAssay (NCI)
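Method: 48-hour compound exposure of cells in 96-well plates, five concentrations, linear interpolation of endpoints. GI50 is the concentration that inhibits growth by half. Definition used: TGI = concentration required for complete inhibition of growth.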

Experiments:
Experiment in all cases: NCI-60 cell line screen, 48 h
OVCAR-8 ovarian = test system: OVCAR-8 ovarian
T-47D breast = test system: T-47D breast
U251 CNS = test system: U251 CNS
SF-295 CNS = test system: SF-295 CNS
NCI-H522 lung = test system: NCI-H522 lung
SN12C renal = test system: SN12C renal
786-0 renal = test system: 786-0 renal
ACHN renal = test system: ACHN renal
LOX IMVI melanoma = test system: LOX IMVI melanoma
MDA-MB-435 = test system: MDA-MB-435
SK-MEL-5 melanoma = test system: SK-MEL-5 melanoma
A549 NSCLC = test system: A549 NSCLC
TK-10 renal = test system: TK-10 renal
HT29 colon = test system: HT29 colon
SNB-75 CNS = test system: SNB-75 CNS
SK-MEL-28 melanoma = test system: SK-MEL-28 melanoma
EKVX NSCLC = test system: EKVX NSCLC
HOP-62 NSCLC = test system: HOP-62 NSCLC
OVCAR-4 ovarian = test system: OVCAR-4 ovarian
SK-OV-3 ovarian = test system: SK-OV-3 ovarian
UACC-62 melanoma = test system: UACC-62 melanoma
HOP-92 NSCLC = test system: HOP-92 NSCLC
SF-268 CNS = test system: SF-268 CNS
COLO 205 colon = test system: COLO 205 colon
OVCAR-3 ovarian = test system: OVCAR-3 ovarian
IGROV1 ovarian = test system: IGROV1 ovarian
RPMI-8226 leukemia = test system: RPMI-8226 leukemia
NCI/ADR-RES ovarian = test system: NCI/ADR-RES ovarian
MCF7 breast = test system: MCF7 breast
UO-31 renal = test system: UO-31 renal
A498 renal = test system: A498 renal
KM12 colon = test system: KM12 colon
NCI-H23 lung = test system: NCI-H23 lung
MALME-3M melanoma = test system: MALME-3M melanoma
HCT-15 colon = test system: HCT-15 colon
SW-620 colon = test system: SW-620 colon
HL-60(TB) leukemia = test system: HL-60(TB) leukemia
SNB-19 CNS = test system: SNB-19 CNS
SF-539 CNS = test system: SF-539 CNS
MOLT-4 leukemia = test system: MOLT-4 leukemia
BT-549 breast = test system: BT-549 breast
UACC-257 melanoma = test system: UACC-257 melanoma
SK-MEL-2 melanoma = test system: SK-MEL-2 melanoma
CCRF-CEM leukemia = test system: CCRF-CEM leukemia
RXF 393 renal = test system: RXF 393 renal
DU-145 prostate = test system: DU-145 prostate
K-562 leukemia = test system: K-562 leukemia
NCI-H460 lung = test system: NCI-H460 lung
CAKI-1 renal = test system: CAKI-1 renal
HCC-2998 colon = test system: HCC-2998 colon
HS 578T breast = test system: HS 578T breast
M14 melanoma = test system: M14 melanoma
MDA-MB-231 breast = test system: MDA-MB-231 breast
OVCAR-5 ovarian = test system: OVCAR-5 ovarian
HCT-116 colon = test system: HCT-116 colon
NCI-H226 lung = test system: NCI-H226 lung
PC-3 prostate = test system: PC-3 prostate

For `O=C1c2[nH]cc(CN3CCN(CCO)CC3)c2C(=O)c2c1c(O)c1ccccc1c2O`, which GI50 (OVCAR-8 ovarian) is on record?
The GI50 was 5.52 µM.

And the TGI (OVCAR-8 ovarian)?
The TGI was 17.7 µM.

And the GI50 (T-47D breast)?
The GI50 was 19.2 µM.

And the TGI (T-47D breast)?
Its TGI is 38.6 µM.

What about the GI50 (U251 CNS) of the same compound?
The GI50 was 5.31 µM.

And the TGI (U251 CNS)?
Its TGI is 25.9 µM.

What about the GI50 (SF-295 CNS) of the same compound?
Its GI50 is 2.56 µM.

And the TGI (SF-295 CNS)?
Its TGI is 10.9 µM.

And the GI50 (NCI-H522 lung)?
Its GI50 is 2.08 µM.

What about the TGI (NCI-H522 lung) of the same compound?
The TGI was 9.05 µM.

And the GI50 (SN12C renal)?
Its GI50 is 2.18 µM.

And the TGI (SN12C renal)?
The TGI was 9.92 µM.

What about the GI50 (786-0 renal) of the same compound?
Its GI50 is 2.65 µM.

What about the TGI (786-0 renal) of the same compound?
Its TGI is 11 µM.

And the GI50 (ACHN renal)?
The GI50 was 5.38 µM.

What about the TGI (ACHN renal) of the same compound?
Its TGI is 23.3 µM.

What about the GI50 (LOX IMVI melanoma) of the same compound?
The GI50 was 1.95 µM.

And the TGI (LOX IMVI melanoma)?
Its TGI is 6.34 µM.

What about the GI50 (MDA-MB-435) of the same compound?
Its GI50 is 1.84 µM.

And the TGI (MDA-MB-435)?
The TGI was 4.14 µM.

What about the GI50 (SK-MEL-5 melanoma) of the same compound?
Its GI50 is 1.12 µM.

And the TGI (SK-MEL-5 melanoma)?
The TGI was 3.27 µM.

What about the GI50 (A549 NSCLC) of the same compound?
The GI50 was 7.15 µM.

What about the TGI (A549 NSCLC) of the same compound?
Its TGI is 24.4 µM.

And the GI50 (TK-10 renal)?
Its GI50 is 0.36 µM.

What about the TGI (TK-10 renal) of the same compound?
The TGI was 6.78 µM.

And the GI50 (HT29 colon)?
The GI50 was 12.3 µM.

What about the TGI (HT29 colon) of the same compound?
Its TGI is 31.6 µM.

What about the GI50 (SNB-75 CNS) of the same compound?
Its GI50 is 14.2 µM.

And the TGI (SNB-75 CNS)?
Its TGI is 32.8 µM.

And the GI50 (SK-MEL-28 melanoma)?
Its GI50 is 13.6 µM.

And the TGI (SK-MEL-28 melanoma)?
Its TGI is 28.7 µM.

And the GI50 (EKVX NSCLC)?
The GI50 was 8.14 µM.

What about the TGI (EKVX NSCLC) of the same compound?
Its TGI is 22.5 µM.

What about the GI50 (HOP-62 NSCLC) of the same compound?
Its GI50 is 1.92 µM.

And the TGI (HOP-62 NSCLC)?
Its TGI is 15 µM.

And the GI50 (OVCAR-4 ovarian)?
Its GI50 is 13.3 µM.

And the TGI (OVCAR-4 ovarian)?
The TGI was 29.4 µM.

And the GI50 (SK-OV-3 ovarian)?
Its GI50 is 18.7 µM.

And the TGI (SK-OV-3 ovarian)?
Its TGI is 37.5 µM.

And the GI50 (UACC-62 melanoma)?
Its GI50 is 4.53 µM.

What about the TGI (UACC-62 melanoma) of the same compound?
The TGI was 9.01 µM.

What about the GI50 (HOP-92 NSCLC) of the same compound?
Its GI50 is 1.14 µM.

And the TGI (HOP-92 NSCLC)?
The TGI was 9.56 µM.

What about the GI50 (SF-268 CNS) of the same compound?
Its GI50 is 5.9 µM.

What about the TGI (SF-268 CNS) of the same compound?
Its TGI is 24.2 µM.

And the GI50 (COLO 205 colon)?
Its GI50 is 16.4 µM.

What about the TGI (COLO 205 colon) of the same compound?
Its TGI is 47.4 µM.

And the GI50 (OVCAR-3 ovarian)?
Its GI50 is 4 µM.

And the TGI (OVCAR-3 ovarian)?
Its TGI is 16.3 µM.

And the GI50 (IGROV1 ovarian)?
Its GI50 is 1.61 µM.

What about the TGI (IGROV1 ovarian) of the same compound?
Its TGI is 15.1 µM.

And the GI50 (RPMI-8226 leukemia)?
The GI50 was 1.52 µM.

What about the TGI (RPMI-8226 leukemia) of the same compound?
Its TGI is 4.16 µM.

What about the GI50 (NCI/ADR-RES ovarian) of the same compound?
The GI50 was 9.64 µM.

What about the TGI (NCI/ADR-RES ovarian) of the same compound?
Its TGI is 28.3 µM.

What about the GI50 (MCF7 breast) of the same compound?
The GI50 was 5.63 µM.

What about the TGI (MCF7 breast) of the same compound?
The TGI was 21.9 µM.

What about the GI50 (UO-31 renal) of the same compound?
The GI50 was 3.82 µM.

What about the TGI (UO-31 renal) of the same compound?
Its TGI is 18.8 µM.

What about the GI50 (A498 renal) of the same compound?
Its GI50 is 13.2 µM.

And the TGI (A498 renal)?
The TGI was 27.8 µM.

And the GI50 (KM12 colon)?
The GI50 was 1.62 µM.

And the TGI (KM12 colon)?
Its TGI is 3.91 µM.

What about the GI50 (NCI-H23 lung) of the same compound?
Its GI50 is 14.9 µM.

What about the TGI (NCI-H23 lung) of the same compound?
The TGI was 39.4 µM.

And the GI50 (MALME-3M melanoma)?
The GI50 was 7.69 µM.

And the TGI (MALME-3M melanoma)?
The TGI was 24.9 µM.

And the GI50 (HCT-15 colon)?
Its GI50 is 2.87 µM.

What about the TGI (HCT-15 colon) of the same compound?
The TGI was 18.6 µM.

And the GI50 (SW-620 colon)?
Its GI50 is 1.68 µM.

What about the TGI (SW-620 colon) of the same compound?
The TGI was 3.48 µM.

And the GI50 (HL-60(TB) leukemia)?
The GI50 was 2.83 µM.

What about the TGI (HL-60(TB) leukemia) of the same compound?
Its TGI is 48.9 µM.

What about the GI50 (SNB-19 CNS) of the same compound?
The GI50 was 14.8 µM.

What about the TGI (SNB-19 CNS) of the same compound?
Its TGI is 32.5 µM.

And the GI50 (SF-539 CNS)?
Its GI50 is 1.52 µM.

And the TGI (SF-539 CNS)?
Its TGI is 3.11 µM.

And the GI50 (MOLT-4 leukemia)?
The GI50 was 1.38 µM.

What about the TGI (MOLT-4 leukemia) of the same compound?
Its TGI is 9.48 µM.

What about the GI50 (BT-549 breast) of the same compound?
The GI50 was 13.8 µM.

What about the TGI (BT-549 breast) of the same compound?
The TGI was 28.6 µM.

What about the GI50 (UACC-257 melanoma) of the same compound?
The GI50 was 8.33 µM.

And the TGI (UACC-257 melanoma)?
The TGI was 25.2 µM.

And the GI50 (SK-MEL-2 melanoma)?
Its GI50 is 2.77 µM.

What about the TGI (SK-MEL-2 melanoma) of the same compound?
The TGI was 8.06 µM.

What about the GI50 (CCRF-CEM leukemia) of the same compound?
Its GI50 is 1.63 µM.

What about the GI50 (RXF 393 renal) of the same compound?
The GI50 was 6.03 µM.

And the TGI (RXF 393 renal)?
Its TGI is 22.9 µM.

And the GI50 (DU-145 prostate)?
The GI50 was 4.53 µM.

What about the TGI (DU-145 prostate) of the same compound?
The TGI was 18.2 µM.

And the GI50 (K-562 leukemia)?
The GI50 was 2.17 µM.

And the TGI (K-562 leukemia)?
Its TGI is greater than 100 µM.

And the GI50 (NCI-H460 lung)?
The GI50 was 2.69 µM.

And the TGI (NCI-H460 lung)?
Its TGI is 12.3 µM.

And the GI50 (CAKI-1 renal)?
Its GI50 is 5.45 µM.

What about the TGI (CAKI-1 renal) of the same compound?
The TGI was 14.2 µM.

And the GI50 (HCC-2998 colon)?
The GI50 was 6.51 µM.

And the TGI (HCC-2998 colon)?
Its TGI is 21.1 µM.

What about the GI50 (HS 578T breast) of the same compound?
The GI50 was 8.14 µM.

And the TGI (HS 578T breast)?
Its TGI is 24.4 µM.

And the GI50 (M14 melanoma)?
The GI50 was 1.69 µM.

And the TGI (M14 melanoma)?
The TGI was 3.86 µM.

What about the GI50 (MDA-MB-231 breast) of the same compound?
The GI50 was 4.89 µM.

What about the TGI (MDA-MB-231 breast) of the same compound?
The TGI was 16.3 µM.

What about the GI50 (OVCAR-5 ovarian) of the same compound?
Its GI50 is 16.5 µM.

And the TGI (OVCAR-5 ovarian)?
Its TGI is 33 µM.

And the GI50 (HCT-116 colon)?
The GI50 was 1.76 µM.

What about the TGI (HCT-116 colon) of the same compound?
Its TGI is 5.47 µM.

What about the GI50 (NCI-H226 lung) of the same compound?
Its GI50 is 10.5 µM.

What about the TGI (NCI-H226 lung) of the same compound?
Its TGI is 28.4 µM.

And the GI50 (PC-3 prostate)?
The GI50 was 2.7 µM.

And the TGI (PC-3 prostate)?
The TGI was 8.78 µM.
